Data as given in patent publication US20080076824A1, “Compounds That Inhibit Replication Of Human Immunodeficiency Virus” (priority 2004, published 2008).
Several values for one entry are separate records, joined by “and”; a condition that tells them apart may be missing. Equal values may be shown once. Entries after “also recorded” stand apart in the source; their conditions may differ. Read-outs that look alike come from different tables or passages of the source. Residues, ends and D or L forms follow the SMILES beside them.

What was measured:
HIV (SF2 virus) [1] = experiment: HIV infectivity assay, SF2-infected H9 cells, reverse transcriptase (RT) quantification in supernatant; type: cell-based; details: for RT mean: mean of replicates; for RT: single replicate
HIV-2 (ROD) = experiment: microbe, parasite or virus in culture; type: cell-based; details: CEM cell cultures, syncytia formation, Table 1; read-out: EC50 HIV-2 ROD
Procedure, shortened: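 CEM, C8166 or MT-4 cells (4 to 5×10^5 cells/ml) infected with HIV-2 ROD at ~100 CCID50/ml, then incubated with 5-fold compound dilutions at 37 °C for 4–5 days. Giant cell formation scored microscopically in CEM and C8166 cultures; MT-4 viability counted by trypan blue exclusion.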

HIV-1 = details: for anti-HIV activity in the presence of IlePyr: 200 and 500 μM IlePyr, in words
[2] = tested on: Vesicular stomatitis virus; details: read-out: Minimum inhibitory concentration Vesicular stomatitis virus; HeLa; reduces virus-induced cytopathogenicity by 50%
Punta Toro virus = details: read-out: Minimum inhibitory concentration Punta Toro virus; Vero; reduces virus-induced cytopathogenicity by 50%
HIV-2 (EHO) = details: read-out: EC50 HIV-2 EHO; CEM cell cultures, syncytia formation
Method: Human T-lymphocytic CEM cells (4.5×10^5 cells per ml) were suspended in fresh cell culture medium and infected with HIV-1 (IIIB and NL4.3) or HIV-2 (ROD or EHO) at 100 CCID50 (1 CCID50 being the virus dose infective for 50% of the cell cultures) per ml of cell suspension. Then, 100 μl of the infected cell suspension were transferred to microplate wells, mixed with 100 μl of appropriate (freshly prepared) dilutions of the test compounds (i.e., at final concentrations of […]), and were further incubated at 37° C. After 4 to 5 days, giant cell formation was recorded microscopically in the CEM cell cultures.

HIV (SF2 virus) [3] = experiment: HIV infectivity assay, SF2-infected H9 cells, p24 quantification; type: cell-based; details: for OD1: replicates (1)-(3)
Method: The remaining wells were filled with sterile distilled water. The cell culture plates were incubated at 37° C. and 5% CO2. After four days the medium was changed, after eight days the medium was changed and the cells were collected. After 11 days, the infection was stopped, the cells were viewed in a 10× magnification microscope and 650 μl of each cell supernatant was collected and frozen at −80° C. for further analysis. After five more days, the supernatants were thawed and used in a conventional reverse transcriptase (RT) activity assay (e.g., Roche AMPLICOR MONITOR™) or a p24 quantification assay (e.g., Abbott Laboratories, Chicago). (See U.S. Pat. No. 6,258,932 and U.S. patent application Ser. No. 10/235,158, both of which are hereby expressly incorporated by reference in its entireties).
[…] The cells in the samples were counted and then centrifuged. The cells were then resuspended in 10 ml of RPMI 1640 (containing fetal calf serum) and either […] Metabolite X or 100 μM GPG-NH2. Uninfected control and untreated control samples were also included in the experiment. The samples were then incubated overnight at 37° C. at 5% CO2.
Then, the amount of p24 in the samples was analysed using a conventional p24 detection assay (see U.S. Pat. No. 6,258,932).
Three replicate samples (“replicates”) of uninfected samples and untreated samples were also included in the experiment as controls. The inhibition of HIV replication was monitored by quantifying the levels of p24 using a conventional detection kit.
Three replicates of unninfected samples and untreated samples were also included in the experiment as controls.

HIV-1 (IIIB) = experiment: microbe, parasite or virus in culture
Procedure, shortened: (§1)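 MT-4, C8166 or CEM cells (4 to 5×10^5 cells/ml) infected at ~100 CCID50/ml, incubated with 5-fold compound dilutions at 37 °C for 4–5 days. Read-out: microscopic giant-cell formation in CEM and C8166 cultures; viable-cell count by trypan blue in MT-4.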

HIV-2(ROD) = experiment: microbe, parasite or virus in culture
Procedure, shortened: as §1

Sindbis virus = details: read-out: Minimum inhibitory concentration Sindbis virus; Vero; reduces virus-induced cytopathogenicity by 50%
[4] = tested on: Respiratory syncytial virus; details: read-out: Minimum inhibitory concentration Respiratory syncytial virus; HeLa; reduces virus-induced cytopathogenicity by 50%
[5] = read-out: EC50 (C8166) HIV-1 (IIIB), Table 19
[6] = read-out: EC50 (MT-4) HIV-1 (IIIB), Table 19
[7] = read-out: EC50 (C8166) HIV-2 (ROD), Table 19
[8] = read-out: EC50 (MT-4) HIV-2 (ROD), Table 19

NCC(N)=O [G-NH2, glycinamide]
OD405-620 (HIV (SF2 virus) [1]; 0.5 μM, fetal calf serum): 0.871 and 0.896 and 0.908
OD405-620 - Blank (HIV (SF2 virus) [1]; 0.5 μM, fetal calf serum): 0.845 and 0.87 and 0.882
RT mean (HIV (SF2 virus) [1]; 0.5 μM, fetal calf serum): 9152 pg/mL
RT (HIV (SF2 virus) [1]; 0.5 μM, fetal calf serum): 8927 pg/mL and 9199 pg/mL and 9329 pg/mL
OD405-620 (HIV (SF2 virus) [1]; 1 μM, fetal calf serum): 0.563 and 0.672 and 0.712
OD405-620 - Blank (HIV (SF2 virus) [1]; 1 μM, fetal calf serum): 0.537 and 0.646 and 0.686
RT mean (HIV (SF2 virus) [1]; 1 μM, fetal calf serum): 6514 pg/mL
RT (HIV (SF2 virus) [1]; 1 μM, fetal calf serum): 5579 pg/mL and 6764 pg/mL and 7199 pg/mL
OD405-620 (HIV (SF2 virus) [1]; 2 μM, fetal calf serum): 0.868 and 0.903 and 0.528
OD405-620 - Blank (HIV (SF2 virus) [1]; 2 μM, fetal calf serum): 0.842 and 0.877 and 0.502
RT mean (HIV (SF2 virus) [1]; 2 μM, fetal calf serum): 7789 pg/mL
RT (HIV (SF2 virus) [1]; 2 μM, fetal calf serum): 8895 pg/mL and 9275 pg/mL and 5199 pg/mL
OD405-620 (HIV (SF2 virus) [1]; 4 μM, fetal calf serum): 0.781 and 0.493 and 0.539
OD405-620 - Blank (HIV (SF2 virus) [1]; 4 μM, fetal calf serum): 0.755 and 0.467 and 0.513
RT mean (HIV (SF2 virus) [1]; 4 μM, fetal calf serum): 6029 pg/mL
RT (HIV (SF2 virus) [1]; 4 μM, fetal calf serum): 7949 pg/mL and 4818 pg/mL and 5318 pg/mL
OD405-620 (HIV (SF2 virus) [1]; 8 μM, fetal calf serum): 0.274 and 0.302 and 0.332
OD405-620 - Blank (HIV (SF2 virus) [1]; 8 μM, fetal calf serum): 0.248 and 0.276 and 0.306
RT mean (HIV (SF2 virus) [1]; 8 μM, fetal calf serum): 2750 pg/mL
RT (HIV (SF2 virus) [1]; 8 μM, fetal calf serum): 2438 pg/mL and 2742 pg/mL and 3068 pg/mL
OD405-620 (HIV (SF2 virus) [1]; 16 μM, fetal calf serum): 0.563 and 0.861 and 0.902
OD405-620 - Blank (HIV (SF2 virus) [1]; 16 μM, fetal calf serum): 0.537 and 0.835 and 0.876
RT mean (HIV (SF2 virus) [1]; 16 μM, fetal calf serum): 158 pg/mL
RT (HIV (SF2 virus) [1]; 16 μM, fetal calf serum): 112 pg/mL and 176 pg/mL and 185 pg/mL
OD405-620 (HIV (SF2 virus) [1]; 32 μM, fetal calf serum): 0.141 and 0.155
OD405-620 - Blank (HIV (SF2 virus) [1]; 32 μM, fetal calf serum): 0.115 and 0.129
RT mean (HIV (SF2 virus) [1]; 32 μM, fetal calf serum): 21 pg/mL
RT (HIV (SF2 virus) [1]; 32 μM, fetal calf serum): 20 pg/mL and 23 pg/mL
inhibition of HIV replication, reverse transcriptase (RT) activity (HIV (SF2 virus) [1]; cultures containing boiled fetal calf serum): unable to inhibit replication of HIV; also recorded: did not
EC50 (HIV-2 (ROD)): 35 ± 8.7 µM
anti-HIV activity in the presence of IlePyr (HIV-1): fully preserved its anti-HIV activity
EC50 (HIV-1; CEM cell cultures, presence of 200 and 500 μM of IlePyr): 35 to 43 µM
EC50 [2]: > 2000 µM
EC50 (Punta Toro virus): > 2000 µM
EC50 (HIV-2 (EHO)): 37 ± 5.8 µM
OD1 (HIV (SF2 virus) [3]; 50 μM, fetal calf serum): 0.182 and 0.105 and 0.319
conc p24 (HIV (SF2 virus) [3]; 50 μM, human serum): 714.23 ng/mL and 653.27 ng/mL and 773.51 ng/mL
OD2 (HIV (SF2 virus) [3]; 100 μM, fetal calf serum): 0.075 and 0.069 and 0.071
conc p24 (HIV (SF2 virus) [3]; 100 μM, fetal calf serum): 0.09 ng/mL and 0.08 ng/mL
mean OD (HIV (SF2 virus) [3]; 100 μM, fetal calf serum): 0.077 and 0.070 and 0.074
mean OD - blank (HIV (SF2 virus) [3]; 100 μM, fetal calf serum): 0.035 and 0.028 and 0.032
OD1 (HIV (SF2 virus) [3]; 100 μM, fetal calf serum): 0.078 and 0.071 and 0.077
conc p24 (HIV (SF2 virus) [3]; 100 μM, human serum): 780.21 ng/mL and 785.24 ng/mL and 876.34 ng/mL
inhibition of HIV replication, accumulation of p24 (HIV (SF2 virus) [3]; human serum): unable to inhibit HIV replication in human serum
EC50 (HIV-1 (IIIB); [5]): 150 µM
EC50 (HIV-1 (IIIB); read-out: EC50 (C8166) HIV-1 (IIIB), Table 20): 150 µM
EC50 (HIV-1 (IIIB); [6]): > 500 µM
EC50 (HIV-1 (IIIB); read-out: EC50 (MT-4) HIV-1(IIIB), Table 20, related set of experiments): > 500 µM
EC50 (HIV-2(ROD); [7]): 150 µM
EC50 (HIV-2(ROD); read-out: EC50 (C8166) HIV-2 (ROD), Table 20): 150 µM
EC50 (HIV-2(ROD); [8]): > 500 µM
EC50 (HIV-2(ROD); read-out: EC50 (MT-4) HIV-2 (ROD), Table 20): > 500 µM
EC50 (Sindbis virus): > 2000 µM
EC50 [4]: > 2000 µM

NCC(=O)N1CCC[C@H]1C(=O)NCC(N)=O [GPG-NH2, glycylprolylglycinamide] (H-Gly-Pro-Gly-NH2)
reverse transcriptase activity in treated samples (HIV (SF2 virus) [1]; 100 μM, fetal calf serum): no reverse transcriptase activity
EC50 (HIV-2 (ROD)): 30 ± 10 µM
anti-HIV activity in the presence of IlePyr (HIV-1): markedly lost its inhibitory activity
EC50 [2]: > 400 µM
EC50 (Punta Toro virus): > 400 µM
EC50 (HIV-2 (EHO)): 42 ± 14 µM
inhibition of HIV replication, p24 (HIV (SF2 virus) [3]; 100 μM, presence of fetal calf serum): effectively inhibited HIV replication
EC50 (HIV-1 (IIIB); [5]): 150 µM
EC50 (HIV-1 (IIIB); [6]): > 500 µM
EC50 (HIV-2(ROD); [7]): 150 µM
EC50 (HIV-2(ROD); [8]): > 500 µM
EC50 (Sindbis virus): > 400 µM
EC50 [4]: > 400 µM
